ChEMBL document CHEMBL1201862, “PubChem BioAssay data set” (2004)
Calls of active or inactive are those of the source.

What was measured:
Streptococcus = test: GAS UMAA2166 growth inhibition – luminescence, BacTiterGlo, counter-screen for streptokinase expression inhibitor project, dose response (AID 1915); format: functional, organism-based;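 also: potency for reduction of bacterial viability or growth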
[1] = NIH-3T3 fibroblast cytotoxicity, dose response, cytotoxicity control, cell-based, fluorescence, Alamar Blue, secondary assay (AID 2327); format: functional;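 also: NIH-3T3 mouse fibroblasts cultured with fluconazole at 8 µg/mL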
[2] = fluconazole-exposed Candida albicans growth modulators – fluorescence, retest, confirmation (AID 2467); format: functional, cell-based
[3] = system: Streptococcus sp. 'group A'; test: Streptococcus pyogenes SK(-)GAS viability under kanamycin – luminescence, BacTiterGlo, confirmation, counter-screen for streptokinase expression inhibitor project, dose response (AID 1900); format: functional, organism-based
[4] = target: FAD-linked sulfhydryl oxidase ALR (Homo sapiens, UniProt P55789); test: ALR-catalysed DTT oxidation blockers – biochemical, H2O2 detection, luminescence, cherry-pick, dose response (AID 493248)
Sequence of FAD-linked sulfhydryl oxidase ALR (P55789 whole entry): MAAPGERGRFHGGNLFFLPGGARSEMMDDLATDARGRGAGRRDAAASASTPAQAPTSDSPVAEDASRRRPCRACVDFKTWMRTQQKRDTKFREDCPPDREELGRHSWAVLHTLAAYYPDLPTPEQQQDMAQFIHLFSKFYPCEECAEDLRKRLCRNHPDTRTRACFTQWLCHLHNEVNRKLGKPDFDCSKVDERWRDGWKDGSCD

Cytochrome P450 2C9 [5] = target: T1, Cytochrome P450 2C9 (Homo sapiens, UniProt P11712)
T1 sequence (P11712 whole entry): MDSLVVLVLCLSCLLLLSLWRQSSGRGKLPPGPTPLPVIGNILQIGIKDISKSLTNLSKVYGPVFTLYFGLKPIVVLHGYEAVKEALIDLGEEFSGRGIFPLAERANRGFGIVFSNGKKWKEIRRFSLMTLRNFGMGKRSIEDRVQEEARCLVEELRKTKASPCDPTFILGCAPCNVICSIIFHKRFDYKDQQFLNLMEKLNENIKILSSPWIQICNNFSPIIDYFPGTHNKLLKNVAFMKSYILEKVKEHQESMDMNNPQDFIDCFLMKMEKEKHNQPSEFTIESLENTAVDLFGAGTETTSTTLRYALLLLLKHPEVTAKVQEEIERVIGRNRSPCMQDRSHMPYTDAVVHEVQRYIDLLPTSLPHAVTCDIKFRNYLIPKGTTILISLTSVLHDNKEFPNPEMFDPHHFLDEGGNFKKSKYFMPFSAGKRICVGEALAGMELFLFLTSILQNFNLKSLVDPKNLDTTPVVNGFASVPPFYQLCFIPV

Cytochrome P450 2D6 = Cytochrome P450 2D6 (Homo sapiens, UniProt P10635);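 also: CYP2D6 member of a cytochrome P450 panel assay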
Sequence of Cytochrome P450 2D6 (P10635 whole entry): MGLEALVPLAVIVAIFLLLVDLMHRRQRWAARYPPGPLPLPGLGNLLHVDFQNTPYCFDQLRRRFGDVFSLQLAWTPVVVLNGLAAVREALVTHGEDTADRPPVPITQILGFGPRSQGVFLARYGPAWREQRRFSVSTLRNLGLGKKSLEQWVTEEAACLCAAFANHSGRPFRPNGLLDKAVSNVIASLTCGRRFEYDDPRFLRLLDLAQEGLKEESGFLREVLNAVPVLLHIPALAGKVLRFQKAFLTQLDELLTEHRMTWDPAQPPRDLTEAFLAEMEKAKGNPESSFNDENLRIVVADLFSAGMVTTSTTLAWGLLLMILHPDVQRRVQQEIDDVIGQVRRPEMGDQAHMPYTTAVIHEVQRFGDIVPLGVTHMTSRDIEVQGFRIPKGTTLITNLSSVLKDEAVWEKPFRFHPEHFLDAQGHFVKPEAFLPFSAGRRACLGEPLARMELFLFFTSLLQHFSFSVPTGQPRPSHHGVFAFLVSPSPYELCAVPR

Cytochrome P450 2C9 [6] = target: T1, Cytochrome P450 2C9; remark: listed apart in the source
Cytochrome P450 1A2 = target: T2, Cytochrome P450 1A2 (Homo sapiens, UniProt P05177);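 also: PubChem cytochrome P450 panel assay, CYP1A2 panel member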
T2 sequence (P05177 whole entry): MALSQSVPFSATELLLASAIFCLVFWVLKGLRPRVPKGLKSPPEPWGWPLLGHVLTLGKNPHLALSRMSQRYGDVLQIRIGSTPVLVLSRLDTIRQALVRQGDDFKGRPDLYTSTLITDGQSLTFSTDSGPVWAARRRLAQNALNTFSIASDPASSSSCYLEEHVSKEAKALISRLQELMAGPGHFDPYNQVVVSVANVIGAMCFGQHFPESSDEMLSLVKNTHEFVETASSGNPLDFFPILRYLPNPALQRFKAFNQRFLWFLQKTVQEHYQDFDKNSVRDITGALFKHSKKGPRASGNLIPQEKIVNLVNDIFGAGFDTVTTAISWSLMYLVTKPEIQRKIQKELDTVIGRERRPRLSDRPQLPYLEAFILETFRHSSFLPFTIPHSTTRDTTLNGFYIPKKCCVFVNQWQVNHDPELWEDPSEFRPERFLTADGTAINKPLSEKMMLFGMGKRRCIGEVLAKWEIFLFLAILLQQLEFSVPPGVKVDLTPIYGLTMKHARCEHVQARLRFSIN

Cytochrome P450 2C19 = Cytochrome P450 2C19 (Homo sapiens, UniProt P33261); test: Cytochrome panel assay with activity outcomes. Panel member name: p450-cyp2c19 Compounds with AC50 equal or less than 10 uM are considered active; format: functional
Sequence of Cytochrome P450 2C19 (P33261 whole entry): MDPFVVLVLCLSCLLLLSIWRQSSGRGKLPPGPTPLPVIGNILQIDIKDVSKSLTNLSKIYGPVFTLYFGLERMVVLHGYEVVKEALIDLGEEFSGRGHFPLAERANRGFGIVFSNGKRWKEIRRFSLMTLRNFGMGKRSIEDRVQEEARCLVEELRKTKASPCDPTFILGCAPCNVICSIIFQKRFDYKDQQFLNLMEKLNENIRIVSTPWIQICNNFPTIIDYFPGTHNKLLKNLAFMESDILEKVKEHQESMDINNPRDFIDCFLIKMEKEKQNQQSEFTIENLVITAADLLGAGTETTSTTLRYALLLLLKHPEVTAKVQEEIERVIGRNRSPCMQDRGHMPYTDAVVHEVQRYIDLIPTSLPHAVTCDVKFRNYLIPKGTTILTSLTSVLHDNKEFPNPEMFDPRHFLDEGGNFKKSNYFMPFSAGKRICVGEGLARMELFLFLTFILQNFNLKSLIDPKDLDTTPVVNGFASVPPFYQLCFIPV

Cytochrome P450 3A4 = Cytochrome P450 3A4 (Homo sapiens, UniProt P08684);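 also: CYP3A4 tested as one member of a cytochrome P450 panel screen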
Sequence of Cytochrome P450 3A4 (P08684 whole entry): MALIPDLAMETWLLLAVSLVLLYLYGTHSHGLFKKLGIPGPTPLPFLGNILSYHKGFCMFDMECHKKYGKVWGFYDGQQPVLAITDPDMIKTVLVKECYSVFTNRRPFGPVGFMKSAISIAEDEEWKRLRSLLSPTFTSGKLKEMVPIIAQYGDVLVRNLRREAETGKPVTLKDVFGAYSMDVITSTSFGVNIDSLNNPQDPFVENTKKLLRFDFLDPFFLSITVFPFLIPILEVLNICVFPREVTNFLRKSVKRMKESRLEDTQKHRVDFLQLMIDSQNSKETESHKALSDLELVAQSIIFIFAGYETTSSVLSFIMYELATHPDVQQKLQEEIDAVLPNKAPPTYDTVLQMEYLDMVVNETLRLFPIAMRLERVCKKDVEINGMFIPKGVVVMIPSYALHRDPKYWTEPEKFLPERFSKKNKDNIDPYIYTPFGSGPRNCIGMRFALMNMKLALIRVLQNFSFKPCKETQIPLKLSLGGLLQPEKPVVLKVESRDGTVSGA

[7] = target: T3, Heat shock factor protein 1 (Mus musculus, UniProt P38532); test: enhancement of HSF1-driven luciferase signal – cell-based, NIH3T3, luminescence, dose retest, confirmation (AID 435004); format: functional;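 also: stress induced by proteasome inhibitor MG132 added 30 min after compound; luciferase reporter driven by HSF1 response element in NIH3T3 cells; actives raise luminescence as potentiators of the MG132 stress response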
T3 sequence (P38532 whole entry): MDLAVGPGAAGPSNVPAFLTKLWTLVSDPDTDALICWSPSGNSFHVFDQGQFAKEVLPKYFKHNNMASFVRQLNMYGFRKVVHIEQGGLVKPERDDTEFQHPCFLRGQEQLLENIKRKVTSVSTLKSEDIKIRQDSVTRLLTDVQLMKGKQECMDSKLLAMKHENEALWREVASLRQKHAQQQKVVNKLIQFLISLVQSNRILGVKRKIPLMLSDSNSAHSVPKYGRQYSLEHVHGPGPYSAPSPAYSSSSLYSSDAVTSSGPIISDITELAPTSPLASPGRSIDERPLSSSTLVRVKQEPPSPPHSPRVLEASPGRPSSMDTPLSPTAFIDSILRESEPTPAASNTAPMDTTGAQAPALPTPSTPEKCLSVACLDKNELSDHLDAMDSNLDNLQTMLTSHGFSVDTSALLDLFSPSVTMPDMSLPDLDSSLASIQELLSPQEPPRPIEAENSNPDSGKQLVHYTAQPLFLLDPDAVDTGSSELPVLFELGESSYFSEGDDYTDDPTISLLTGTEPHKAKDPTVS

[8] = target: T4, Corticotropin-releasing factor receptor 2/Corticotropin-releasing factor-binding protein (Homo sapiens, UniProt P24387+Q13324); test: activators of CRF receptor 2 with binding protein – uHTS hits, confirmation (AID 602473); format: functional; settings: read-out: EC50_Mean
T4 sequence (Q13324 whole entry): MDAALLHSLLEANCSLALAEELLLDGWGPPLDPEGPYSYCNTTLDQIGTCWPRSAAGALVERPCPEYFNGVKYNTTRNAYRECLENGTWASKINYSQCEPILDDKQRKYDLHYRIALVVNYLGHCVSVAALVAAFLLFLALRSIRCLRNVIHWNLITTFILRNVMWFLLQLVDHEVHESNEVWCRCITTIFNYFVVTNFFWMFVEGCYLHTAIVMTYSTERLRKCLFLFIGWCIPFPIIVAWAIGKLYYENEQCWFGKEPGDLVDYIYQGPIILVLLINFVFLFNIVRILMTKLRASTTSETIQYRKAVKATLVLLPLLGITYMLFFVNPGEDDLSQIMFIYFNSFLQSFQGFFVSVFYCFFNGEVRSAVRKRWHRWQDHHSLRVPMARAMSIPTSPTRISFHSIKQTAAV
T4 sequence (P24387 whole entry): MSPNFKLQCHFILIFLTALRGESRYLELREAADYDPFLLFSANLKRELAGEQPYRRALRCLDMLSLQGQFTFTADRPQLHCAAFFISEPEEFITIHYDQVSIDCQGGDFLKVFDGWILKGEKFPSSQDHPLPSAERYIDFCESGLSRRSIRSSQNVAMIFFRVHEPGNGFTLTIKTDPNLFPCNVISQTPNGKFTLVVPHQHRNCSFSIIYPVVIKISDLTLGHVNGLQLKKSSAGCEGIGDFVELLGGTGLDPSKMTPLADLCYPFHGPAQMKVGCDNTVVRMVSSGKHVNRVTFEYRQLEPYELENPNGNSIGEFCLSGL

[9] = NIH3T3 cell viability loss – ATP luminescence, mouse fibroblasts, counter-screen, dose response (AID 2010); format: functional, cell-based;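 also: cells exposed to compound for about 90 hours before reading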
[10] = Trypanosoma cruzi growth suppression in host cells – NIH3T3 host cells, beta-gal luminescence, confirmation (AID 2044); format: functional, cell-based;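 also: intracellular parasites grown in NIH/3T3 mouse fibroblasts as host cells; luminescent beta-galactosidase reporter signal from transgenic T. cruzi replicating inside host cells; inhibitors lower the luminescence signal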

Compound: CCc1ccc(OCC(=O)NNC(=S)NC(=O)C2CCCCC2)c(Br)c1
- EC50 (Streptococcus): 3.91 µM (active)
- EC50 [1]: > 150 µM (inactive)
- EC50 [2]: 2.33 µM (active)
- EC50 [3]: < 0.06 µM (active)

Compound: Cc1nn(Cc2ccc(Cl)cc2)c(C)c1N
- AC50 [4]: 28.5 µM (active)

Compound: Cc1noc(C)c1C(=O)N1CCC2(CCN(Cc3ccccc3)CC2)CC1
- AC50 (Cytochrome P450 2C9 [5]): inconclusive

Compound: Cc1ccc(NC(=NO)c2nonc2N)cc1
- AC50 [4]: 19.3 µM (active)

Compound: COc1cccc(Nc2ncc3nc(-c4cn(C)c5ccccc45)c(=O)n(C[C@H]4CCCO4)c3n2)c1
- AC50 (Cytochrome P450 2C9 [5]): inconclusive

Compound: O=C(/C=C/c1ccccc1)NC(=S)Nc1ccc(N2CCOCC2)c(Cl)c1
- EC50 [1]: > 160 µM (inactive)
- EC50 [2]: 5.76 µM (active)

Compound: O=C(c1cc(C(F)(F)F)cc(C(F)(F)F)c1)N1CCC2(CCCN(c3ccncc3)C2)CC1
- AC50 (Cytochrome P450 2D6): 15.8 µM (inconclusive)
- AC50 (Cytochrome P450 2C9 [6]): 31.6 µM (inconclusive)

Compound: CCC(C)NC(=O)c1c(C)cc(=O)oc1C (stereo not given)
- AC50 (Cytochrome P450 1A2): 28.2 µM (inconclusive)
- AC50 (Cytochrome P450 2C9 [6]): 5.01 µM (inconclusive)

Compound: CO[C@H]1OC[C@@]2(C)[C@@H]3C4=C(CN2C(=O)OC(C)(C)C)[C@H](C)[C@H](CO)[C@H](CO)[C@H]4CC[C@H]13
- AC50 (Cytochrome P450 2C19; read-out: AC50): 39.8 µM (inconclusive)
- AC50 (Cytochrome P450 3A4): 10 µM (inconclusive)
- AC50 (Cytochrome P450 2C9 [6]): 20 µM (inconclusive)

Compound: CN(c1ccccc1C(=O)N1CCN(c2ccccc2)CC1)S(C)(=O)=O
- AC50 [4]: 2.93 µM (active)

Compound: Oc1[nH]c2ccccc2c1C1=NCCCC1
- AC50 [4]: 0.325 µM (active)

Compound: O=C(c1ccccc1)c1cccn1CC(=O)N1CCN(c2ccccc2)CC1
- AC50 [4]: 12.4 µM (active)

Compound: COCc1nnc(NC(=O)c2ccc(S(=O)(=O)N3CCCc4ccccc43)cc2)o1
- EC50 [1]: > 150 µM (inconclusive)
- EC50 [2]: 2.96 µM (active)

Compound: CCOC(=O)CSc1nc(O)c2cnn(-c3ccc(C)cc3)c2n1
- AC50 (Cytochrome P450 2C19): inconclusive
- AC50 (Cytochrome P450 3A4): 3.16 µM (inconclusive)
- AC50 (Cytochrome P450 2C9 [6]): 2.24 µM (inconclusive)

Compound: COC(=O)CCC(=O)C1=C(N)CC(C)(C)CC1=O
- EC50 [7]: > 260 µM (inactive)

Compound: COc1ccc(OC)c(NC(=O)CCN2CCN(c3ccccc3)CC2)c1
- AC50 [4]: 3.7 µM (active)

Compound: CCOc1ccccc1NC(=O)CN1CCC(NC(=O)c2ccccc2)CC1
- AC50 (Cytochrome P450 2C9 [5]): inconclusive

Compound: COC(=O)c1c(C)[nH]c(O)c1/C=N/c1ccc(C(C)C)cc1
- EC50 [8]: > 53 µM (inactive)
- EC50 [9]: > 60 µM (inconclusive)
- EC50 [10]: 4.19 µM (active)
- AC50 (Cytochrome P450 2C19; read-out: AC50): 25.1 µM (inconclusive)
- AC50 (Cytochrome P450 3A4): 28.2 µM (inconclusive)
- AC50 (Cytochrome P450 2C9 [6]): 28.2 µM (inconclusive)

Compound: CNC(=O)N(O)C1N(/N=C/c2c(F)cccc2Cl)C(=S)SC1(C)C (stereo not given)
- EC50 [7]: > 260 µM (inactive)

Compound: CCOC(=O)C(=O)/C(C#N)=C/Nc1ccccc1
- EC50 [7]: 168 µM (active)

Compound: Cc1nc2ccccn2c1C(=O)N/N=C/c1ccccc1[N+](=O)[O-]
- AC50 (Cytochrome P450 2C9 [5]): inconclusive

Compound: O=C(O)c1ccc(/N=c2\oc3cc(O)ccc3cc2C(=O)NCc2ccccc2)cc1
- AC50 [4]: 1.71 µM (active)

Compound: CCC(=O)N(C)CCc1cc2c(c(OC)c1/C=N/Nc1ccc(C(=O)O)cc1)OCO2
- AC50 [4]: 3.56 µM (active)

Compound: COc1cc(/C=N/NC(=O)c2ccc(CSc3nncn3C)cc2)cc(OC)c1O
- AC50 [4]: 2.25 µM (active)
